Results from PMC2790015 (Journal of molecular biology, 2009).
Values belong to the molecule of their own block, whether it stands above or below them.

How the values were obtained:
[1] = test system: K4 and E4 heterodimerizing coiled-coil peptides; experiment: DNA-assisted binding assay; conditions: GC to AT substituted DNA versus original DNA sequence
[2] = test system: DNA alone; experiment: DNA hybridization controls for the AraC experiments; assay type: binding; conditions: compared with no sugar; sugars 10 mM; data not shown
[3] = test system: adjacent DNA half-sites; conditions: addition of arabinose; cited from earlier work
[4] = target: T1, K4 coiled-coil peptide (modified: N-terminal Met, Val to Trp, C-terminal Ala), unconjugated; experiment: ITC
T1 peptide: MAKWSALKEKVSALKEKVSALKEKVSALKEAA

Molecule: GC to AT substituted DNA sequences: K4 and E4 conjugated to GC to AT substituted 5’-TTTTTTGGGTTATAC-3’ and 5’-TTTTTTGTATAAC-3’ (K4 and E4 peptides conjugated)
decrease in the interaction between the conjugates [1]: 3 -fold

Molecule: OC[C@H]1OC(O)[C@H](O)[C@@H](O)[C@@H]1O (some centres unmarked) [glucose]
effect of sugar on DNA hybridization [2]: DNA hybridization is not affected

Molecule: O[C@@H]1[C@@H](O)[C@@H](O)CO[C@H]1O [arabinose]
effect of sugar on DNA hybridization [2]: DNA hybridization is not affected | increase in amount of AraC capable of binding to adjacent DNA half-sites [3]: 40 -fold

Kd [4]: ~1 µM
B1: E4 coiled-coil peptide (modified: N-terminal Met, Val to Trp, C-terminal Ala), unconjugated (peptide)
peptide: MAEWSALEKEVSALEKEVSALEKEVSALEKAA
